Measurements from patent US9434711B2 (Janssen Pharmaceutica, NV, priority 2007, dated 2016).

Molecular target: canine TRPM8 (Canis lupus familiaris, UniProt Q1A7N1)
Assay: In Vitro Canine TRPM8 Functional Assay (Ca2+ fluorescence, icilin activation)
Type: cell-based
Conditions: for IC50: HEK293 cells stably expressing canine TRPM8, icilin activation, eight-point dose-response, read-out: IC50; for inhibition at 0.5 µM: compound at 0.5 μM, read-out: % Inh @ 0.5; for inhibition at 0.5 µM / inhibition at 0.2 µM: canine TRPM8, icilin activation; for inhibition at 0.2 µM: compound at 0.2 μM, read-out: % Inh @ 0.2
Summary of the method: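 Eight-point dose-response curves, each point averaging quadruplicate wells, gave EC50 or IC50. Canine TRPM8-expressing HEK293 cells, dye-loaded (Calcium 3), were pre-exposed 5 min to compound, then challenged with icilin at roughly EC80; intracellular Ca2+ read by FLIPR or FDSS fluorescence.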

Chain of canine TRPM8 (Q1A7N1 1-1104): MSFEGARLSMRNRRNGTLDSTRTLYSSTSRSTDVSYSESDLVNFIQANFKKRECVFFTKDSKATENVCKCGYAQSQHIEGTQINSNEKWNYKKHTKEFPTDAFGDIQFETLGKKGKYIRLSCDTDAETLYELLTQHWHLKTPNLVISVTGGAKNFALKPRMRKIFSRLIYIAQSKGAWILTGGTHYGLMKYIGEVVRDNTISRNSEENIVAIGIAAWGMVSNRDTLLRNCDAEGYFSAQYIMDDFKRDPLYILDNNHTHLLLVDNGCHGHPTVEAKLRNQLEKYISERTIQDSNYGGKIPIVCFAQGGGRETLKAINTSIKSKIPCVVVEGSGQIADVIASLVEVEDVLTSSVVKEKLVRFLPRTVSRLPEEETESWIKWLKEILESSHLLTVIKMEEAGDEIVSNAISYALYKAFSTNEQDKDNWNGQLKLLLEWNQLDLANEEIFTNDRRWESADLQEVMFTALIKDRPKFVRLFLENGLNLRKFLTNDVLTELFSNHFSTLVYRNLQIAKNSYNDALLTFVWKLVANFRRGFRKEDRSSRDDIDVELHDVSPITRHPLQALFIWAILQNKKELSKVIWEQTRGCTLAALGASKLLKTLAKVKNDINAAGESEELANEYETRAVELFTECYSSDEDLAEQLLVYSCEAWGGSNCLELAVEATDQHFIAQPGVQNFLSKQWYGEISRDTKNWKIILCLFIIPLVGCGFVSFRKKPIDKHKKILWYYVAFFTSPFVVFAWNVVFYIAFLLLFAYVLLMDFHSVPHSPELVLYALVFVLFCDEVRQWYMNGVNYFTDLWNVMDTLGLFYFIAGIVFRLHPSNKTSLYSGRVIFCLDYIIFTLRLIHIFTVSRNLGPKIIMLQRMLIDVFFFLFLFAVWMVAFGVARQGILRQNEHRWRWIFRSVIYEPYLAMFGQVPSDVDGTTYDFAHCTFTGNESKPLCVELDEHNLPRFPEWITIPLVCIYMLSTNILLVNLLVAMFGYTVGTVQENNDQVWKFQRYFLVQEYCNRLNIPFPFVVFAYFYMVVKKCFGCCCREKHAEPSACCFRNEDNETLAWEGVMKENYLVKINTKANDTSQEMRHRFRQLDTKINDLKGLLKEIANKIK

Compound: COc1ccc(CN(c2sc3ccccc3c2Br)S(=O)(=O)c2ccccc2)cc1 [Compound 164, N-(3-Bromo-benzo[b]thiophen-2-yl)-N-(4-methoxy-benzyl)-benzenesulfonamide]
- IC50: 31.9 nM
- inhibition at 0.5 µM: 97%

Compound: COc1ccc(CN(c2sc3ccccc3c2Br)S(=O)(=O)c2ccccc2)cc1Br [Compound 165, N-(3-Bromo-benzo[b]thiophen-2-yl)-N-(3-bromo-4-methoxy-benzyl)-benzenesulfonamide]
- IC50: 3.7 nM
- inhibition at 0.5 µM: 98%

Compound: O=S(=O)(c1ccccc1)N(Cc1ccccc1F)c1sc2ccccc2c1Br [Compound 166, N-(3-Bromo-benzo[b]thiophen-2-yl)-N-(2-fluoro-benzyl)-benzenesulfonamide]
- IC50: 11.4 nM
- inhibition at 0.5 µM: 94%

Compound: O=[N+]([O-])c1cccc(CN(c2sc3ccccc3c2Br)S(=O)(=O)c2ccccc2)c1 [Compound 167, N-(3-Bromo-benzo[b]thiophen-2-yl)-N-(3-nitro-benzyl)-benzenesulfonamide]
- inhibition at 0.5 µM: 101%

Compound: O=S(=O)(c1ccccc1)N(Cc1cccnc1)c1sc2ccccc2c1Br [Compound 169, N-(3-Bromo-benzo[b]thiophen-2-yl)-N-(pyridin-3-ylmethyl)-benzenesulfonamide]
- IC50: 21.4 nM
- inhibition at 0.5 µM: 98%

Compound: O=S(=O)(c1ccccc1)N(Cc1ccncc1)c1sc2ccccc2c1Br [Compound 170, N-(3-Bromo-benzo[b]thiophen-2-yl)-N-(pyridin-4-ylmethyl)-benzenesulfonamide]
- IC50: 44.5 nM
- inhibition at 0.5 µM: 97%

Compound: O=[N+]([O-])c1ccccc1CN(c1sc2ccccc2c1Br)S(=O)(=O)c1ccccc1 [Compound 171, N-(3-Bromo-benzo[b]thiophen-2-yl)-N-(2-nitro-benzyl)-benzenesulfonamide]
- IC50: 19.3 nM
- inhibition at 0.5 µM: 100%

Compound: O=S(=O)(c1ccccc1)N(Cc1ccccc1OC(F)(F)F)c1sc2ccccc2c1Br [Compound 172, N-(3-Bromo-benzo[b]thiophen-2-yl)-N-(2-trifluoromethoxy-benzyl)-benzenesulfonamide]
- IC50: 11.1 nM
- inhibition at 0.5 µM: 98%

Compound: O=S(=O)(c1ccccc1)N(Cc1cccc(OC(F)(F)F)c1)c1sc2ccccc2c1Br [Compound 173, N-(3-Bromo-benzo[b]thiophen-2-yl)-N-(3-trifluoromethoxy-benzyl)-benzenesulfonamide]
- IC50: 8.4 nM
- inhibition at 0.5 µM: 99%

Compound: O=S(=O)(c1ccccc1)N(Cc1ccccc1)c1sc2ccccc2c1Br [Compound 175, N-(Benzyl)-N-(3-bromo-benzo[b]thiophen-2-yl)-benzenesulfonamide]
- IC50: 4.6 nM
- inhibition at 0.5 µM: 97%

Compound: COc1cc(CN(c2sc3ccccc3c2Br)S(=O)(=O)c2ccccc2)ccc1F [Compound 176, N-(3-Bromo-benzo[b]thiophen-2-yl)-N-(4-fluoro-3-methoxy-benzyl)-benzenesulfonamide]
- IC50: 2.8 nM
- inhibition at 0.5 µM: 97%

Compound: Cc1ccccc1CN(c1sc2ccccc2c1Br)S(=O)(=O)c1ccccc1 [Compound 178, N-(3-Bromo-benzo[b]thiophen-2-yl)-N-(2-methyl-benzyl)-benzenesulfonamide]
- IC50: 35.5 nM
- inhibition at 0.5 µM: 96%

Compound: Cc1cccc(CN(c2sc3ccccc3c2Br)S(=O)(=O)c2ccccc2)c1 [Compound 179, N-(3-Bromo-benzo[b]thiophen-2-yl)-N-(3-methyl-benzyl)-benzenesulfonamide]
- IC50: 3.6 nM
- inhibition at 0.5 µM: 98%

Compound: COc1cccc(S(=O)(=O)N(Cc2ccc(F)c(C(F)(F)F)c2)c2sc3ccccc3c2Cl)c1 [Compound 180, N-(3-Chloro-benzo[b]thiophen-2-yl)-N-(4-fluoro-3-trifluoromethyl-benzyl)-3-methoxy-benzenesulfonamide]
- IC50: 43 nM
- inhibition at 0.2 µM: 96%

Compound: COc1ccc(S(=O)(=O)N(Cc2ccc(F)c(C(F)(F)F)c2)c2sc3ccccc3c2Cl)cc1 [Compound 181, N-(3-Chloro-benzo[b]thiophen-2-yl)-N-(4-fluoro-3-trifluoromethyl-benzyl)-4-methoxy-benzenesulfonamide]
- IC50: 84 nM
- inhibition at 0.2 µM: 95%

Compound: COc1ccc(S(=O)(=O)N(Cc2ccc(F)c(C(F)(F)F)c2)c2sc3ccccc3c2Br)cc1 [Compound 182, N-(3-Bromo-benzo[b]thiophen-2-yl)-N-(4-fluoro-3-trifluoromethyl-benzyl)-4-methoxy-benzenesulfonamide]
- IC50: 10 nM
- inhibition at 0.5 µM: 99%

Compound: CCS(=O)(=O)N(Cc1ccc(F)c(C(F)(F)F)c1)c1sc2ccccc2c1Br [Compound 183, N-(3-Bromo-benzo[b]thiophen-2-yl)-N-(4-fluoro-3-trifluoromethyl-benzyl)-ethanesulfonamide]
- IC50: 14 nM
- inhibition at 0.5 µM: 99%

Compound: O=S(=O)(c1cccs1)N(Cc1ccc(F)c(C(F)(F)F)c1)c1sc2ccccc2c1Br [Compound 184, N-(3-Bromo-benzo[b]thiophen-2-yl)-N-(4-fluoro-3-trifluoromethyl-benzyl)-thiophene-2-sulfonamide]
- IC50: 3.9 nM
- inhibition at 0.5 µM: 97%

Compound: COc1cccc(S(=O)(=O)N(Cc2ccc(F)c(C(F)(F)F)c2)c2sc3ccccc3c2Br)c1 [Compound 185, N-(3-Bromo-benzo[b]thiophen-2-yl)-N-(4-fluoro-3-trifluoromethyl-benzyl)-3-methoxy-benzenesulfonamide]
- IC50: 6.4 nM
- inhibition at 0.2 µM: 102%

Compound: O=S(=O)(c1ccsc1)N(Cc1ccc(F)c(C(F)(F)F)c1)c1sc2ccccc2c1Br [Compound 186, N-(3-Bromo-benzo[b]thiophen-2-yl)-N-(4-fluoro-3-trifluoromethyl-benzyl)-thien-3-yl-sulfonamide]
- IC50: 3.7 nM
- inhibition at 0.2 µM: 103%

Compound: O=S(=O)(c1ccsc1)N(Cc1ccc(F)c(C(F)(F)F)c1)c1sc2ccccc2c1Cl [Compound 187, N-(3-Chloro-benzo[b]thiophen-2-yl)-N-(4-fluoro-3-trifluoromethyl-benzyl)-thien-3-yl-sulfonamide]
- IC50: 6 nM
- inhibition at 0.2 µM: 100%

Compound: O=S(=O)(c1cccnc1)N(Cc1ccc(F)c(C(F)(F)F)c1)c1sc2ccccc2c1Cl [Compound 189, N-(3-Chloro-benzo[b]thiophen-2-yl)-N-(4-fluoro-3-trifluoromethyl-benzyl)-pyridin-3-yl-sulfonamide]
- IC50: 11.6 nM
- inhibition at 0.2 µM: 100%

Compound: CCS(=O)(=O)N(Cc1ccc(F)c(C(F)(F)F)c1)c1sc2ccccc2c1Cl [Compound 190, N-(3-Chloro-benzo[b]thiophen-2-yl)-N-(4-fluoro-3-trifluoromethyl-benzyl)-ethanesulfonamide]
- IC50: 15.2 nM
- inhibition at 0.2 µM: 101%

Compound: O=S(=O)(c1cccs1)N(Cc1ccc(F)c(C(F)(F)F)c1)c1sc2ccccc2c1Cl [Compound 191, N-(3-Chloro-benzo[b]thiophen-2-yl)-N-(4-fluoro-3-trifluoromethyl-benzyl)-thiophene-2-sulfonamide]
- inhibition at 0.2 µM: 105%

Compound: COC(=O)c1ccc(S(=O)(=O)N(Cc2ccc(F)c(C(F)(F)F)c2)c2sc3ccccc3c2Br)cc1 [Compound 192, N-(3-Bromo-benzo[b]thiophen-2-yl)-N-(4-fluoro-3-trifluoromethyl-benzyl)-4-carbomethoxy-benzenesulfonamide]
- IC50: 60 nM
- inhibition at 0.2 µM: 82%

Compound: COC(=O)c1cccc(S(=O)(=O)N(Cc2ccc(F)c(C(F)(F)F)c2)c2sc3ccccc3c2Br)c1 [Compound 193, N-(3-Bromo-benzo[b]thiophen-2-yl)-N-(4-fluoro-3-trifluoromethyl-benzyl)-3-carbomethoxy-benzenesulfonamide]
- IC50: 14.5 nM
- inhibition at 0.2 µM: 101%

Compound: COC(=O)c1ccc(S(=O)(=O)N(Cc2ccc(F)c(C(F)(F)F)c2)c2sc3ccccc3c2Cl)cc1 [Compound 194, N-(3-Chloro-benzo[b]thiophen-2-yl)-N-(4-fluoro-3-trifluoromethyl-benzyl)-4-carbomethoxy-benzenesulfonamide]
- inhibition at 0.2 µM: 45%

Compound: COC(=O)c1cccc(S(=O)(=O)N(Cc2ccc(F)c(C(F)(F)F)c2)c2sc3ccccc3c2Cl)c1 [Compound 195, N-(3-Chloro-benzo[b]thiophen-2-yl)-N-(4-fluoro-3-trifluoromethyl-benzyl)-3-carbomethoxy-benzenesulfonamide]
- IC50: 47.3 nM
- inhibition at 0.2 µM: 88%

Compound: COC(=O)c1ccccc1S(=O)(=O)N(Cc1ccc(F)c(C(F)(F)F)c1)c1sc2ccccc2c1Cl [Compound 196, N-(3-Chloro-benzo[b]thiophen-2-yl)-N-(4-fluoro-3-trifluoromethyl-benzyl)-2-carbomethoxy-benzenesulfonamide]
- IC50: 8 nM
- inhibition at 0.2 µM: 99%

Compound: COC(=O)c1ccccc1S(=O)(=O)N(Cc1ccc(F)c(C(F)(F)F)c1)c1sc2ccccc2c1Br [Compound 197, N-(3-Bromo-benzo[b]thiophen-2-yl)-N-(4-fluoro-3-trifluoromethyl-benzyl)-2-carbomethoxy-benzenesulfonamide]
- IC50: 7 nM
- inhibition at 0.2 µM: 99%

Compound: CCS(=O)(=O)N(Cc1ccc(F)c(C(F)(F)F)c1)c1sc2ccccc2c1C#N [Compound 198, N-(3-Cyano-benzo[b]thiophen-2-yl)-N-(4-fluoro-3-trifluoromethyl-benzyl)-ethanesulfonamide]
- IC50: 10 nM
- inhibition at 0.2 µM: 95%

Compound: CCS(=O)(=O)N(Cc1ccc(F)c(C(F)(F)F)c1)c1sc2ccccc2c1-c1cncnc1 [Compound 199, N-(4-Fluoro-3-trifluoromethyl-benzyl)-N-(3-pyrimidin-5-yl-benzo[b]thiophen-2-yl)-ethanesulfonamide]
- IC50: 13 nM
- inhibition at 0.2 µM: 91%

Compound: CCS(=O)(=O)N(Cc1ccc(F)c(C(F)(F)F)c1)c1sc2ccccc2c1-c1ccccc1F [Compound 200, N-[3-(2-Fluoro-phenyl)-benzo[b]thiophen-2-yl]-N-(4-fluoro-3-trifluoromethyl-benzyl)-ethanesulfonamide]
- inhibition at 0.2 µM: 29%
